Experimental data taken from article PMC9298916, “The Discovery and Structure‐Activity Evaluation of (+)‐Floyocidin B and Synthetic Analogs” (Chemmedchem, 2021).
Converted amounts (≈) assume the structure as drawn. Like-named read-outs stand apart in the source and are kept apart here.

Key:
M. tuberculosis H37Rv = assay: Growth inhibition, M. tuberculosis H37Rv (Middlebrook 7H9, CellTiter-Blue); format: cell-based; conditions: M. tuberculosis H37Rv (Mtb); 6 days
physchem = format: physicochemical; conditions: for chromatographic logD: pH 7.4, Log D pH 7.4
Protocol: 2.4. Assay descriptions for the profiling of all four stereoisomers of (+)-floyocidin B and (−)-avicennone C,1 the avicennone C-floyocidin B hybrids 35, ent-35, 36 and ent-36 as well as the natural product (+)-floyocidin A.
Determination of logD 7.4
LogD values at pH 7.4 were determined by a standardized HPLC method derived from by Genieser et al.8 The calculation of the logD value for measured compounds is performed by comparison of the retention times with standard compounds of known distribution coefficients between 1 -octanol and water at pH 7.4. […]
8 Krass, J. D., Jastorff, B., and Genieser, H.-G. Anal. Chem. 1997, 69, 2575–2581. […]

[1] = Microsomal stability, human; format: in vitro ADME; conditions: 1 µM compound; for Microsomal stability CLint, Human / Microsomal stability t1/2, Human: human liver microsomes 0.5 mg/mL; for microsomal CLint at 1 µM / half-life at 1 µM: human, pooled liver microsomes, pH 7.4, human liver microsomes 0.5 mg/mL; for half-life at 1 µM: read-out: Microsomal stability t1/2, Human
Protocol: (§1) 2.4. Assay descriptions for the profiling of all four stereoisomers of (+)-floyocidin B and (−)-avicennone C,1 the avicennone C-floyocidin B hybrids 35, ent-35, 36 and ent-36 as well as the natural product (+)-floyocidin A. […]
(§2) Pooled liver microsomes are purchased. Microsomes are stored at –80 °C prior to use. Microsomes (final protein concentration 0.5 mg/mL), 0.1 M phosphate buffer pH 7.4, and test compound (final substrate concentration 1 µM; final DMSO concentration 0.25%) are preincubated at 37 °C prior to the addition of NADPH (final concentration 1 mM) to initiate the reaction. A minus cofactor control i ncubation is included for each compound tested where 0.1 M phosphate buffer pH 7.4 is added instead of NADPH. Two control compounds are included. All incubations are performed singularly for each test compound. Each compound is incubate d for 0, 5, 15, 30, and 45 min. The control is incubated for 45 min only. The reactions are stopped by transferring incubate into acetonitrile at the appropriat e time points, in a 1:3 ratio. The termination plates are centrifuged at 3,000 rpm for 20 min at 4 °C to precipitate the protein.
(§3) From a plot of ln peak area ratio (compound peak area/internal standard peak area) against time, the gradient of the line is determined. Subsequently, half -life and intrinsic clearance are calculated using the equations below:
(§4) Elimination rate constant (k) = (- gradient)
(§5) Intrinsic clearance (CL )(µL/min/mg protein) = V x 0.693 […]
(§6) where V = Incubation volume (µL)/Microsomal protein (mg)
(§7) Relevant control compounds are assessed, ensuring intrinsic clearance values fall within the specified limits (if available). […]

[2] = Microsomal stability, mouse; format: in vitro ADME; conditions: for Microsomal stability CLint, Mouse / Microsomal stability t1/2, Mouse: mouse liver microsomes 0.5 mg/mL
Protocol: as §1, §2, §3, §4, §5, §6, §7

THP1 cells = assay: Cytotoxicity on THP1 cells (CellTiterGlo); format: cell-based; conditions: THP1 cells; 40 h
Protocol: (§8) Cytotoxicity on THP1 and HepG2 cells
(§9) After 4 hours of HepG2 cell line (provided by ATCC) plating at 2.500 cells /well in 384-w plates, compounds were added to the cells. After an incubation at 37 °C for 40 h, the CellTiterGlo assay (provided by Promega) was performed.
(§10) Luminescence measurement is related to the cell viability. Compound activity is determined by using the control wells with no treatment as control (100% of growth). The assay was performed identically with THP1 cells. All incubations were […]

HepG2 cells = assay: Cytotoxicity on HepG2 cells (CellTiterGlo); format: cell-based; conditions: 40 h
Protocol: as §8, §9, §10

Caco-2 cells = assay: Cellular permeability assay utilizing Caco2 cell line; conditions: 10 µM, 120 min; for Caco‐2 permeability Papp +Elacridar / Caco‐2 permeability recovery +Elacridar: A2B in the presence of elacridar
[3] = system: M. catarrhalis ATCC25238I; assay: Micro-broth dilution growth inhibition, M. catarrhalis; format: cell-based
C. albicans FH2173 = assay: Micro-broth dilution growth inhibition, C. albicans (ATP quantification); format: cell-based
E. coli ATCC25922 = assay: Micro-broth dilution growth inhibition, E. coli (CAMH); format: cell-based; conditions: Escherichia coli, 18 h
E. coli ATCC25922 MHC = assay: Micro-broth dilution growth inhibition, E. coli in CAMH with 44 mM sodium bicarbonate (MHC); format: cell-based; conditions: E. coli ATCC25922 MHC (CAMH + 44 mM sodium bicarbonate)
P. aeruginosa ATCC27853 = assay: Micro-broth dilution growth inhibition, P. aeruginosa; format: cell-based; conditions: Pseudomonas aeruginosa, 18 h
S. aureus ATCC25923 = assay: Micro-broth dilution growth inhibition, S. aureus; format: cell-based; conditions: Staphylococcus aureus, 18 h
[4] = Cellular permeability assay utilizing Caco2 cell line; conditions: human; for Papp at 120 min, 10 µM: Caco-2, Caco‐2 permeability Papp +Elacridar, A2B in the presence of elacridar; for Papp A→B at 120 min, 10 µM: Caco-2, Caco‐2 permeability Papp A2B, A2B
[5] = Escherichia coli, ATCC25922, 18 h, read-out: MIC
[6] = Moraxella catarrhalis, ATCC25238I, read-out: MIC
[7] = Candida albicans, FH2173, 48 h, read-out: MIC

| SMILES | Log D pH 7.4 (physchem) | Microsomal stability CLint, Human [1] [μL/min/mg protein] | Microsomal stability t1/2, Human [1] [min] | Microsomal stability CLint, Mouse ([2]; 1 µM compound) [μL/min/mg protein] | Microsomal stability t1/2, Mouse ([2]; 1 µM compound) [min] | Cytotoxicity TC50 THP1 (THP1 cells) [µM] | Cytotoxicity TC50 HepG2 (HepG2 cells) [µM] | Caco‐2 permeability Papp +Elacridar (Caco-2 cells) | Caco‐2 permeability recovery +Elacridar (Caco-2 cells) [%] | Caco‐2 permeability Papp A2B (Caco-2 cells) | Caco‐2 permeability recovery A2B (Caco-2 cells) [%] | MIC [3] [µg/mL] | MIC (C. albicans FH2173; 48 h) [µg/mL] | MIC (E. coli ATCC25922) [µg/mL] | MIC (E. coli ATCC25922 MHC; [5]) [µg/mL] | MIC (P. aeruginosa ATCC27853) [µg/mL] | MIC (S. aureus ATCC25923) [µg/mL] | MIC (C. albicans FH2173; [7]) [µg/mL] | chromatographic logD (physchem) | Papp at 120 min, 10 µM [4] [×10⁻⁶ cm/s] | other results |
| --- | --- | --- | --- | --- | --- | --- | --- | --- | --- | --- | --- | --- | --- | --- | --- | --- | --- | --- | --- | --- | --- |
| CCCC=Cc1ccc2c(c1)C(=O)C1(CC=C(C)C)OC1C2O (stereo not drawn) [ent‐36] | 4.74 | 29.9 | 46.3 | 721 | 1.92 | 18.2 | 11.3 | 12.4 10^−7 cm s^−1 | 12.0 | 8.55 10^−7 cm s^−1 | 14.3 | – | – | – | – | – | – | – | – | – | MIC (M. tuberculosis H37Rv): 9.4 µg/mL (≈ 30.1 µM); Caco‐2 permeability recovery +Elacridar (Caco-2 cells; listed as ent-36): 12.0%; Caco‐2 permeability recovery A2B (Caco-2 cells; listed as ent-36): 14.3% |
| CC(C)=CCC12OC1C(O)c1ccccc1C2=O (stereo not drawn) [compound 2, (−)‐avicennone C, reference compound] | 2.86 | 150 | 9.26 | – | – | 30 | >30 | 393 10^−7 cm s^−1 | 83.4 | 407 10^−7 cm s^−1 | 86.7 | 64 (≈ 262 µM) | 128 (≈ 524 µM) | – | – | – | – | – | – | – | – |
| CCCC=Cc1cc2c(cn1)C(O)C1OC1(CC=C(C)C)C2=O (stereo not drawn) [ent‐4] | – | – | – | 271 | 5.12 | 8.78 | 5.97 | – | 28.7 | – | 23.4 | – | – | > 128 | > 128 | > 128 | > 128 | > 128 | 3.97 | 4.67 | MIC [3, 6]: 16 µg/mL (≈ 51.1 µM); microsomal CLint at 1 µM [1]: 26.9 µL/min/mg; half-life at 1 µM [1]: 51.6 min; Papp A→B at 120 min, 10 µM [4]: 7.35 ×10⁻⁶ cm/s; Caco‐2 permeability recovery +Elacridar (Caco-2 cells; listed as ent-4): 28.7%; Caco‐2 permeability recovery A2B (Caco-2 cells; listed as ent-4): 23.4% |
| CC(C)=CCC12OC1C(O)c1ccccc1C2=O (stereo not shown) [compound 37] | – | 54.6 | 25.4 | – | – | 27.2 | 30 | – | 80.9 | – | 74.8 | 128 (≈ 524 µM) | 128 (≈ 524 µM) | – | – | – | – | – | 2.82 | 27.9 | microsomal CLint at 1 µM ([2]; mouse, microsomes, pH 7.4, Microsomal stability CLint): > 1500 µL/min/mg; Papp A→B at 120 min, 10 µM [4]: 32.6 ×10⁻⁶ cm/s |
| CCCC=Cc1cc2c(cn1)C(O)C1OC1(CC=C(C)C)C2=O (stereo not drawn) [ent‐27] | 4.16 | 44.3 | 31.3 | 764 | 1.81 | 11.5 | 10.4 | 64.4 10^−7 cm s^−1 | 15.3 | 40.5 10^−7 cm s^−1 | 8.69 | 8 (≈ 25.5 µM) | – | – | – | – | – | – | – | – | Caco‐2 permeability recovery +Elacridar (Caco-2 cells; listed as ent-27): 15.3%; Caco‐2 permeability recovery A2B (Caco-2 cells; listed as ent-27): 8.69% |
| CC(C)=CCC12OC1C(O)c1ccccc1C2=O (stereo not shown) [compound 38] | 2.84 | 76.0 | 18.2 | 1070 | 1.29 | 30 | 9.49 | 331 10^−7 cm s^−1 | 132 | 620 10^−7 cm s^−1 | 127 | – | – | > 128 | > 128 | > 128 | > 128 | > 128 | – | – | MIC [3, 6]: 128 µg/mL (≈ 524 µM) |
| CCC/C=C/C=C/C1=C(CO)[C@@H](O)[C@H]2O[C@@]2(CC=C(C)C)C1=O [compound 3, (1R,5R,6R)‐3‐((1E,3E)‐Hepta‐1,3‐dien‐1‐yl)‐5‐hydroxy‐4‐(hydroxymethyl)‐1‐(3‐methylbut‐2‐en‐1‐yl)‐7‐oxabicyclo[4.1.0]hept‐3‐en‐2‐one] | – | – | – | – | – | – | – | – | – | – | – | – | – | > 128 | > 128 | > 128 | 64 (≈ 201 µM) | > 128 | 4.11 | – | – |
| CC(C)=CCC12OC1C(O)c1ccccc1C2=O (stereo not drawn) [ent‐37] | 2.82 | 73.5 | 18.9 | 370 | 3.75 | 25.2 | 30 | 300 10^−7 cm s^−1 | 74.6 | 360 10^−7 cm s^−1 | 81.3 | – | 128 (≈ 524 µM) | – | – | – | – | – | – | – | MIC (E. coli ATCC25922 MHC; 18 h): 128 µg/mL; Caco‐2 permeability recovery +Elacridar (Caco-2 cells; listed as ent-37): 74.6%; Caco‐2 permeability recovery A2B (Caco-2 cells; listed as ent-37): 81.3% |
| CCC/C=C/c1cc2c(cn1)[C@H](O)[C@H]1O[C@@]1(CC=C(C)C)C2=O [compound 27, (1aR,2S,7aR)‐2‐Hydroxy‐7 a‐(3‐methylbut‐2‐en‐1‐yl)‐5‐((E)‐pent‐1‐en‐1‐yl)‐1 a,7 a‐dihydrooxireno[2,3‐g]isoquinolin‐7(2H)‐one] | – | – | – | – | – | 10.6 | 10.7 | – | 38.5 | – | 42.1 | – | – | > 128 | > 128 | > 128 | > 128 | > 128 | 4.14 | 8.77 | microsomal CLint at 1 µM [1]: 95.8 µL/min/mg; half-life at 1 µM [1]: 14.5 min; microsomal CLint at 1 µM ([2]; mouse, pooled liver microsomes, pH 7.4, mouse liver microsomes 0.5 mg/mL, 1 µM compound, read-out: Microsomal stability CLint, Mouse): 1500 µL/min/mg; half-life at 1 µM ([2]; mouse, pooled liver microsomes, pH 7.4, mouse liver microsomes 0.5 mg/mL, 1 µM compound, read-out: Microsomal stability t1/2, Mouse): 0.924 min; Papp A→B at 120 min, 10 µM [4]: 11.7 ×10⁻⁶ cm/s |
